Test results reported in patent US20150291565A1, “INDOLE COMPOUNDS AND THEIR USE AS ANTIMICROBIALS” (Memorial Sloan-Kettering Cancer Center, priority 2012, published 2015).
Values joined by “and” are separate entries in the source; they are usually repeats but may differ in a detail not shown here. Identical values can stand only once.

What was measured:
[1] = system: S. pneumoniae (ATCC 6303); assay: Thigh infection model in neutropenic CD1 mice, S. pneumoniae; conditions: 100 mg/kg BID SC, 24 hours; for Log reduction: vs vehicle, 100 mg/kg
[2] = system: methicillin-resistant S. aureus (ATCC 33591); assay: Thigh infection model in neutropenic CD1 mice, MRSA; conditions: 100 mg/kg BID SC, 24 hours
[3] = system: S. aureus (MRSA) (ATCC33591); assay: Septicemia survival model in neutropenic CD1 mice, MRSA; format: in vivo; conditions: 100 mg/kg BID SC

CN[C@H](CC(C)C)C(=O)N[C@H]1C(=O)N[C@@H](CC(N)=O)C(=O)N[C@H]2C(=O)N[C@H]3C(=O)N[C@H](C(=O)N[C@H](C(=O)O)c4cc(O)cc(O)c4-c4cc3ccc4O)[C@H](O)c3ccc(c(Cl)c3)Oc3cc2cc(c3O[C@@H]2O[C@H](CO)[C@@H](O)[C@H](O)[C@H]2O[C@H]2C[C@](C)(N)[C@H](O)[C@H](C)O2)Oc2ccc(cc2Cl)[C@H]1O [Vancomycin, reference compound]
Mean bacterial tissue burden (log10/thigh) [1]: 3.4862 log10/thigh | Log reduction [1]: 5.6265 Log | Log reduction ([1]; listed as vancomycin): 5.63 Log | Mean bacterial tissue burden (log10/thigh) [2]: 5.0033 log10/thigh | Log reduction ([2]; vs vehicle, 100 mg/kg): 3.45 Log and 3.4455 Log | Percent Survival Day 1 [3]: 100% | Percent Survival Day 2 [3]: 100% | Percent Survival Day 3 [3]: 100% | Percent Survival Day 4 [3]: 80% | Percent Survival Day 5 [3]: 80% | Percent Survival Day 6 [3]: 80% | Percent Survival Day 7 [3]: 80%
